Test results from PMC4829572, “Purification and characterization of endo β-1,4-D-glucanase from Trichoderma harzianum strain HZN11 and its application in production of bioethanol from sweet sorghum bagasse” (3 Biotech, 2016).

Target: T1, endo β-1,4-D-glucanase
T1 construct: gene egl1; native secreted enzyme purified from solid state culture (ammonium sulfate, DEAE-Sepharose, Sephadex G-100); ~55 kDa on SDS-PAGE, monomer
Test: inhibition of CMC hydrolysis, DNS reducing sugar assay, Lineweaver-Burk plot
Assay type: biochemical, Trichoderma harzianum
Details: competitive; substrate carboxymethyl cellulose; cellobiose 5 and 10 mM
Source text: inhibition of CMC hydrolysis, DNS reducing sugar assay, Lineweaver-Burk plot on endo β-1,4-D-glucanase | cellobiose to be competitive inhibitor of endo β-1,4-D-glucanase in the presence of CMC substrate

Ki: 66 mM
Compound: OC[C@H]1O[C@@H](O[C@H]2[C@H](O)[C@@H](O)C(O)O[C@@H]2CO)[C@H](O)[C@@H](O)[C@@H]1O (stereo partly shown) [cellobiose]
